Laboratory results: PMC2364994, “Complexes With Biologically Active Ligands. Part 1. Synthesis of Coordination Compounds of Diazoxide With Transition- and Main-Group Cations” (Metal-Based Drugs, 1996)

Assays:
[1] = molecular target: T1, Bovine CA II (Bos taurus, UniProt P00921); assay: Maren's micromethod, CO2 hydration; assay type: biochemical; conditions: 0 °C, veronal buffer; E-I technique; unit shows as (M) in the extracted table, text says micromolar range
T1 construct: gene CA2; commercial enzyme (Sigma Chemical Co.); isozyme described as erythrocyte CA
T1 sequence (P00921 2-260): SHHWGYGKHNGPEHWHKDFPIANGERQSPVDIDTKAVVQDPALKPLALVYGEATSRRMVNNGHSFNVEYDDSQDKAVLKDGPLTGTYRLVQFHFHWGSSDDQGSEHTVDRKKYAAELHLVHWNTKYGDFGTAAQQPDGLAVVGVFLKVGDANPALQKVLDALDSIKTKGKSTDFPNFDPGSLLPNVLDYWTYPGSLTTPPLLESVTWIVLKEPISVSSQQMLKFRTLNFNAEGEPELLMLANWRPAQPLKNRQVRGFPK

[2] = molecular target: T2, human CA I (Homo sapiens, UniProt P00915); assay: Maren's micromethod, CO2 hydration; assay type: biochemical; conditions: 0 °C, veronal buffer; E-I technique; unit shows as (M) in the extracted table, text says micromolar range
T2 construct: gene CA1; commercial enzyme (Sigma Chemical Co.); isozyme described as erythrocyte CA
T2 sequence (P00915 2-261): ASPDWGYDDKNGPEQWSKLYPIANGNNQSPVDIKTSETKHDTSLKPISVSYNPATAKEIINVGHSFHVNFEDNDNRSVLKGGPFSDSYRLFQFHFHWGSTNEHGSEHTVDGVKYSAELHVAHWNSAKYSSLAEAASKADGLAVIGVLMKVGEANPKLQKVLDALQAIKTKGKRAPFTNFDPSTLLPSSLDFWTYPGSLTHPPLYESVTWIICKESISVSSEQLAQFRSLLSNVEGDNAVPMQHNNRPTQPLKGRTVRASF

Substance | IC50 [1] [M] | IC50 [2] [M]
[PDZO)(OH)a].2HO [compound 14] | 6e-05 | 7.2e-05
[VO(DZO)(OH)].HO [compound 17] | 0.000125 | 0.000105
